Assay results: US12433843B2, “Biomolecular composites comprising modified cell ghosts” (National University of Singapore, priority 2017, dated 2025)

System: CT26 mouse colon carcinoma model
Experiment: In vivo co-localisation of Cy7 labelled nCVTs, IVIS imaging
Procedure: The nCVTs labelled with cyanine 7 NHS Monoester dye (Cy7) of Example 7 were compared with similarly labeled liposomes of the same lipid constitution (Liposomes produced for loading and in vitro testing were prepared with 1.95 mg of DPPC and 0.05 mg of Cholesterol. Liposomes produced for in vivo experiments were PEGylated, and prepared with 2.61 mg of DPPC, 1.61 mg of DSPE-PEG2000 and 0.78 mg of cholesterol.) The samples were then injected through the tail vein of a CT26 mouse colon carcinoma model, with tumour formation subcutaneously on the back of the mouse.
Three groups of mice were injected with Cy7 labelled nCVTs, Cy7 labelled liposomes and free dye. After 24 hours, the mice were imaged using the In Vivo Imaging Systems (IVIS) spectrum.

## cyanine 7 NHS Monoester dye [free dye]
24 hours, liposomes are PEGylated
  Relative fluorescence intensity of excised liver and kidney: reduced fluorescence intensity
Tail vein injection, after 24 hours, liposomes are PEGylated
  Accumulation of fluorescence at the tumour site (IVIS, whole mice): does not accumulate in the tumours
Tail vein injection, mouse
  Clearance: rapidly cleared
Within 24 hours
  Elimination from the mouse: largely eliminated
